Test results from US9877999B2, “Methods for treating metastatic stage prostate cancer” (Ferring International SA, priority 2008, dated 2018).
“And” between values parts separate entries of the source, which are not always exact repeats. Equal entries are not always repeated. Where two headings read alike, the source gives them in different places. Square brackets hold non-standard residues; d marks the D form. Peptide text beside a SMILES is read from it. * marks the point of attachment. dPhe(4-NHCONH2) = NC(=O)Nc1ccc(C[C@@H](N)C(=O)O)cc1; Dihydroorotyl(S) = O=C1C[C@@H](C(=O)*)NC(=O)N1; dPhe(4-Cl) = N[C@H](Cc1ccc(Cl)cc1)C(=O)O; Phe(4-NH2) = Nc1ccc(C[C@H](N)C(=O)O)cc1; d2Nal = N[C@H](Cc1ccc2ccccc2c1)C(=O)O; Lys(iPr) = CC(C)NCCCC[C@H](N)C(=O)O; d3Pal = N[C@H](Cc1cccnc1)C(=O)O

What was measured:
[1] = human, in vivo, sc
[2] = system: human CYP450 (cytochrome P450) system
clinical [3] = experiment: clinical; set-up: species or system human; conditions: in vivo
Text: Plasma protein binding is estimated to be approximately 90%.

[4] = system: follicle stimulating hormone (FSH); experiment: Serum FSH levels over time (clinical study CS21); type: in vivo, human; conditions: by day 7; degarelix
Method: (§1) The study also investigated whether degarelix is safe and effective with respect to achieving and maintaining testosterone suppression to castrate levels, evaluated as the proportion of patients with testosterone suppression ≦0.5 ng/mL during 12 months of treatment. […] The study also evaluated the pharmacokinetics of the degarelix dosing regimens investigated. Finally, the study examined the effects of using the degarelix treatment on patients suffering from different stages of cancer.
(§2) Patients in two treatment groups received a degarelix starting dose of 240 mg at a concentration of 40 mg/mL (240@40) on day 0 administered as two equivalent subcutaneous (s.c.) injections of 120 mg each. Thereafter, patients received 12 additional single s.c. degarelix doses of either 80 mg at a concentration of 20 mg/mL (80@20: degarelix 240/80 mg group) or 160 mg at a concentration of 40 mg/mL (160@40: degarelix 240/160 mg group) administered s.c. every 28 days.
(§3) The secondary efficacy endpoints were: the proportion of patients with testosterone surge during the first 2 weeks of treatment; the proportion of patients with testosterone level ≦0.5 ng/mL at day 3; the percentage change in PSA from baseline to day 28; the probability of testosterone ≦0.5 ng/mL from day 56 through day 364; the levels of serum testosterone, LH, FSH and PSA over time through the study; the time to PSA failure, defined as two consecutive increases of 50%, and at least 5 ng/mL as compared to nadir; degarelix concentration over the first month and trough levels at day 308 and 336; the frequency and size of testosterone increases at day 255 and/or 259 compared to the testosterone level at day 252; the quality of life on days 0, 28, 84, 168 and end of study visit; the frequency and intensity of hot flushes experienced (scored daily from study start until end of study visit). In addition, two further secondary endpoints were added: the probability of sufficient testosterone response from day 28 through day 364 (a patient was considered to have insufficient testosterone response if they had one testosterone value >1.0 ng/mL or two consecutive testosterone values >0.5 ng/mL at day 28 onwards); and the percentage change in PSA from baseline to day 14.

[5] = human, in vivo
in vitro = conditions: plasma
luteinizing hormone (LH) = experiment: Serum LH levels over time (clinical study CS21); type: in vivo, human; conditions: day 1; degarelix, ITT analysis set
Method: as §1, §2, §3

testosterone = type: in vivo, human; conditions: for overall proportion of patients with testosterone ≦0.5 ng/mL from day 28 to day 364: observed cases analysis
Method: The study also evaluated the pharmacokinetics of the degarelix dosing regimens investigated. Finally, the study examined the effects of using the degarelix treatment on patients suffering from different stages of cancer. […] The primary efficacy endpoint was the probability of testosterone levels remaining ≦0.5 ng/mL from day 28 through day 364. […] The primary efficacy endpoint was analyzed for both the ITT and PP analysis sets, with the ITT analysis set considered primary. The primary efficacy endpoint was analyzed using the Kaplan Meier method. For each of the three treatment groups, testosterone response rates with 95% confidence interval (CI) were calculated by log-log transformation of survivor function. […] All secondary efficacy endpoints were analyzed for both the ITT and PP analysis sets, unless otherwise stated. […] The percentage change in PSA from baseline to day 28 endpoint was analyzed by a Wilcoxon test.

clinical [6] = conditions: male, human, in vivo, sc, 240 mg
[7] = system: prostate-specific antigen (PSA); experiment: PSA failure in prostate cancer patients (clinical study CS21); type: in vivo, human; conditions: for proportion of PSA failures: degarelix 240/80 mg
Method: For this analysis, PSA failure (a secondary endpoint) was defined as two consecutive increases in PSA of 50% and 5 ng/mL compared with nadir. The time to PSA failure was defined as the number of days from first dosing to where an increase in serum PSA of 50% from nadir and 5 ng/mL, measured on two consecutive occasions at least two weeks apart, was noted. The second occasion was the time point of meeting the criterion. PSA failure rates were also analyzed by disease stage and baseline PSA level.
as §3
The secondary endpoints, probability of testosterone ≦0.5 ng/mL from day 56 through day 364, time to PSA failure, and probability of sufficient testosterone response from day 28 through day 364 were analyzed by the Kaplan-Meier method.

- significant metabolites in plasma samples [1]: No significant metabolites were detected
- AUC ([1]; 240 mg): 1240 ng·days/mL
- substrate for the human CYP450 system [2]: not a substrate
- fraction excreted via the hepato-biliary system (clinical [3]): approximately 80%
- Vd (clinical [3]; male, human): ~1 L/kg
- clearance (clinical [3]; male, human): 0.583 to 0.833 mL/min/kg
- dose excreted (clinical [3]; male, human): ~20%
- fraction unbound (in vitro): ~0.1
- proportion of patients with testosterone surge (increase 15% from baseline) (testosterone; human, in vivo): 0.2%
- Cmax (clinical [6]): 53.4 ng/mL
- Tmax (clinical [6]): 1.4 days
- half-life (clinical [6]; T½): 43 days
- half-life (clinical [6]; median terminal half-life): ~43 days
SMILES: CC(=O)N[C@H](Cc1ccc2ccccc2c1)C(=O)N[C@H](Cc1ccc(Cl)cc1)C(=O)N[C@H](Cc1cccnc1)C(=O)N[C@@H](CO)C(=O)N[C@@H](Cc1ccc(NC(=O)[C@@H]2CC(=O)NC(=O)N2)cc1)C(=O)N[C@H](Cc1ccc(NC(N)=O)cc1)C(=O)N[C@@H](CC(C)C)C(=O)N[C@@H](CCCCNC(C)C)C(=O)N1CCC[C@H]1C(=O)N[C@H](C)C(N)=O [degarelix, D-Alaninamide, N-acetyl-3-(2-naphthalenyl)-D-alanyl-4-chloro-D-phenylalanyl-3-(3-pyridinyl)-D-alanyl-L-seryl-4-[[[(4S)-hexahydro-2,6-dioxo-4-pyrimidinyl]carbonyl]amino]-L phenylalanyl-4-[(aminocarbonyl)amino]-D-phenylalanyl-L leucyl-N6-(1-methylethyl)-L-lysyl-L-prolyl] (Ac-[d2Nal][dPhe(4-Cl)][d3Pal]S[Phe(4-NH2)](Dihydroorotyl(S))[dPhe(4-NHCONH2)]L[Lys(iPr)]P[dA]-NH2)
- decrease of median FSH from baseline [4]: > 80%
- median FSH level [4]: ≤ 1.5 IU/L
- tolerability [5]: generally well tolerated
- decrease of median LH from baseline (luteinizing hormone (LH)): approximately 88%
- median LH level (luteinizing hormone (LH)): < 0.7 IU/L
- median testosterone level (testosterone; 240 mg then monthly 80 mg, after one year): 0.087 ng/mL
- patients with sustained testosterone suppression (testosterone; 240 mg then monthly 80 mg, at least one year): 97%
- Kaplan-Meier estimate of the probability of testosterone ≦0.5 ng/mL from day 28 to day 364 (testosterone; degarelix 240/80 mg group): 97.2%
- Kaplan-Meier estimate of the probability of testosterone ≦0.5 ng/mL from day 28 to day 364 (testosterone; degarelix 240/160 mg group): 98.3%
- overall proportion of patients with testosterone ≦0.5 ng/mL from day 28 to day 364 (testosterone; degarelix 240/80 mg group): 97.0%
- overall proportion of patients with testosterone ≦0.5 ng/mL from day 28 to day 364 (testosterone; degarelix 240/160 mg group): 98.2%
- patients exhibiting testosterone suppression on day 3 (testosterone; patients receiving degarelix): 96%
- probability of completing the study without experiencing PSA failure by day 364 ([7]; degarelix 240/80 mg group): 91.1% and 91.2%
- proportion of PSA failures ([7]; patients with baseline PSA>50 ng/mL): 29.2%
- proportion of PSA failures ([7]; patients with metastatic disease at baseline): 21.6%
